{"source": "paper PMC11162469", "about": "“Discovery of RXFP2 genetic association in resistant hypertensive men and RXFP2 antagonists for the treatment of resistant hypertension” (Scientific Reports, 2024)", "key": {"[1]": {"target": "T1, RXFP2 (Homo sapiens, UniProt Q8WXD0)", "T1 sequence (Q8WXD0 whole entry)": "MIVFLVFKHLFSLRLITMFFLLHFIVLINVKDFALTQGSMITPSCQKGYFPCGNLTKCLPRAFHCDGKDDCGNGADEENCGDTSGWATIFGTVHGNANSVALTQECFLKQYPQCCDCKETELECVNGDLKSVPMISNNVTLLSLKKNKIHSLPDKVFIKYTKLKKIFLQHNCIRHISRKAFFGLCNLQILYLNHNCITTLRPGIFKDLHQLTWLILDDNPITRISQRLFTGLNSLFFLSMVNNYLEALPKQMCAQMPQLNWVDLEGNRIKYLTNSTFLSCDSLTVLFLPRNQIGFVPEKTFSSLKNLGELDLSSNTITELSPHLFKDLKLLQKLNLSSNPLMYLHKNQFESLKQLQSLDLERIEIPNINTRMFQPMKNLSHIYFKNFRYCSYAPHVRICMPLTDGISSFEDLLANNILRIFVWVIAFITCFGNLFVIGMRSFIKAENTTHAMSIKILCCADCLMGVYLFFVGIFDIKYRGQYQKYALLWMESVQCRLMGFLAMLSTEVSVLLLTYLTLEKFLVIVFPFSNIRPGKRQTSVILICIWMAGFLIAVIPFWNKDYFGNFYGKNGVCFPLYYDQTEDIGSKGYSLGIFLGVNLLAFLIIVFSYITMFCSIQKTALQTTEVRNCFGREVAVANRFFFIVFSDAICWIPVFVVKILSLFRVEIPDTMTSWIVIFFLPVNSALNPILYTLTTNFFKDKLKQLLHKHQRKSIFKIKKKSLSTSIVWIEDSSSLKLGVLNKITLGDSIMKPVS", "assay": "cell-based", "method": "Resulting molecules were counter screened against parental HEK293 to remove compounds inhibiting cAMP with < tenfold selectivity compared to RXFP2 expressing cells. An orthogonal readout was utilized to confirm RXFP2 antagonist activity; whereby RXFP2 was transiently expressed in HEK293 stably expressing a member of the Gαq G protein family (murine Gα16) to induce promiscuous G-protein coupling and subsequent calcium mobilization.\nFor the RXFP2 orthologue assay, calcium detection was measured using FLIPR assay technology in HEK293‐ MSRII Gα16 cells. Cells were resuspended in fresh cell culture media in the presence of RXFP2 BacMam and seeded at a density of 15,000 cells/well in 50 µL into black clear‐bottomed 384‐well plates and incubated at 37 °C/5% CO2 for 24 h prior to assay. Media from wells was aspirated and replaced with 30 µL/well of assay buffer (HBSS, 25 mM HEPES, pH 7.4) supplemented with dye-loading reagents (30 µM probenecid, 3 µM Fluo‐4 and 750 µM Brilliant Black). Plates were incubated for 1 h at 37 °C/5% CO2. Test compounds were added to dye-loaded cells at 10 µL/well and incubated for 10 min. Agonist stimulation was induced with the addition of 10 µL/well assay buffer supplemented with a final EC80 concentration of ligand (2.4 nM INSL3). Fluorescence was detected immediately using a FLIPR TETRA plate reader, with excitation at 488 nm and emission at 530 nm. […]"}, "[2]": {"target": "T2, rat RXFP2 (Rattus norvegicus, UniProt F7EMH8)", "T2 sequence (F7EMH8 20-737)": "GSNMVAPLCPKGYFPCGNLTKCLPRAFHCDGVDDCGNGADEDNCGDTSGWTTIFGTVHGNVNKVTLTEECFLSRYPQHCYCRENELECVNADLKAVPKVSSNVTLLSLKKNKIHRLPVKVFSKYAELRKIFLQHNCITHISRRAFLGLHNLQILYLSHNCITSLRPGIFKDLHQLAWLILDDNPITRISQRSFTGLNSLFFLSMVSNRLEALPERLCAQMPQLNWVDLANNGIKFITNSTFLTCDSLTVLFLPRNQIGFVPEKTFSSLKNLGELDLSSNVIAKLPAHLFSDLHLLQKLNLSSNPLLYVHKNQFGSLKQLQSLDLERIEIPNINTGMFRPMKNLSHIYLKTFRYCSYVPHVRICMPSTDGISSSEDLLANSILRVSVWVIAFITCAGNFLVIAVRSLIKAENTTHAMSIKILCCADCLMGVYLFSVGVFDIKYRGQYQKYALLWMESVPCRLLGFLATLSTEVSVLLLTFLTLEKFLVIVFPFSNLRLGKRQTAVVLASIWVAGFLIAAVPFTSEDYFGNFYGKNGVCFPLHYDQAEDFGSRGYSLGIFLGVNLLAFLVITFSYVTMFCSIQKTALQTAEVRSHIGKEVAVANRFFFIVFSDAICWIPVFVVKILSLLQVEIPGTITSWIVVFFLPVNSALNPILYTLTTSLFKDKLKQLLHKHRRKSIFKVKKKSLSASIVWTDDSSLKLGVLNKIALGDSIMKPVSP", "assay": "INSL3-stimulated cAMP assay in HEK293 stably expressing rat RXFP2;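 note: cAMP measured with an HitHunter kit in 384-well plates, 11-point dose–response curves up to 1 µM antibody, four-parameter variable-slope fit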", "method": "(§4) RXFP activity assays were developed in HEK293 with stable expression of RXFP2 or RXFP1.\n(§5) The same approach was used to generate stable HEK293 lines expressing human and rat RXFP1 and RXFP2 cDNA. The cAMP assay was conducted using the Eurofin Hithunter kit per manufacturer’s instructions in a 384-well format. All dose curve fitting and EC50 and IC50 determinations were performed in Prism (v9.3.0) using the non-linear fit, variable slope (four parameter) function."}, "[3]": {"system": "rat RXFP2", "assay": "INSL3-stimulated cAMP assay in HEK293 with BacMam expression of rat RXFP2", "type": "cell-based", "conditions": "read-out: EC50 cAMP in HEK293 transiently expressing rat RXFP2", "procedure": "Active compounds (RXFP2 HTRF IC50 < 100 µM, RXFP2 FLIPR IC50 < 100 µM) were profiled to determine selectivity and rat cross-reactivity (Fig. 2). The RXFP1 assay detected compound inhibition of relaxin EC80-induced cAMP in HEK293 transiently expressing human RXFP1 (hRXFP1). […] Only 7 of 104 compounds had rRXFP2 IC50 < 100 µM, indicating poorly conserved receptor binding sites across species. RXFP2 blockers were organized into two potential series, based on structural similarity. […] BRL-37274 and GSK618069 were identified as selective RXFP2 antagonists. […] Ultimately, poor chemical properties and low ligand efficiency limited further compound optimization (Table 1, Supplementary Figs. S6, S7).\nThe nucleotide sequences used in Bacmam transfections encoded RXFP protein as described in UniProt (Q9HBX9. RXFP1_human; Q8WXD0. RXFP2_human; Q5ECL0. RXFP2_rat). […]\n(§1) cAMP generation was measured using the Lance Ultra cAMP kit as per manufacturer’s instructions (Perkin Elmer) in HEK293 cells transduced in tissue culture flasks with RXFP BacMam, incubated at 37 °C/5% CO2 for 18 h before assay. […] After a 30 min incubation, 4 µL of Lance detection reagent was added and the FRET signal read 1 h later using a TR-FRET-capable plate reader, with excitation at 340 nm and emission at 615 nm and 665 nm. […]"}, "[4]": {"target": "T1, RXFP2", "assay": "INSL3-stimulated cAMP assay in HEK293 with BacMam expression of human RXFP2", "type": "cell-based", "set-up": "expressed in transfected cells; host or cells: HEK293-MSRII, BacMam transduction (MOI 5)", "conditions": "HTRF primary assay, read-out: EC50 cAMP in HEK293 expressing human RXFP2", "excerpt": "A high throughput screen (HTS) assay was developed using HEK293 cells transduced with RXFP2 via baculovirus-mediated gene transfer (BacMam)[40]. […] The HTS campaign identified 104 hits across 8 clusters showing blockade of hRXFP2.\nThe nucleotide sequences used in Bacmam transfections encoded RXFP protein as described in UniProt (Q9HBX9. RXFP1_human; Q8WXD0. RXFP2_human; Q5ECL0. RXFP2_rat). HEK293- MSRII cells were maintained in DMEM‐F12, supplemented with 10% fetal bovine serum (FBS) and L-glutamine at 37 °C/5% CO2. HEK293 stably expressing Gα16 were maintained in DMEM‐F12, supplemented with 10% FBS, L-glutamine and selection antibiotics at 37 °C/5% CO2. Transient receptor expression was achieved using modified baculoviruses (BacMam), generated according to manufacturer’s instructions using the Bac-to-Bac system (Invitrogen, UK) encoding hRXFP1, hRXFP2 or rRXFP2. Cells were transduced with RXFP-BacMam at an optimized multiplicity of infection (MOI) of 5.\nas §1"}, "[5]": {"target": "T1, RXFP2", "assay": "INSL3-stimulated cAMP assay in HEK293 stably expressing human RXFP2", "method": "as §4, §5"}, "[6]": {"target": "T2, rat RXFP2", "assay": "INSL3-stimulated CYP11B1 mRNA expression in H295R stably expressing rat RXFP2", "type": "cell-based", "set-up": "expressed in transfected cells", "conditions": "48 h of treatment; read-out: EC50 on CYP11B1 mRNA expression, H295R-rRXFP2", "procedure": "(§2) RXFP2 antagonists were added to H295R-rRXFP2 before addition of INSL3 EC80 (3.5 nM) for 48 h, whereupon the cells and supernatants were collected. CYP11B1 and CYP11B2 mRNA were determined by qPCR and the RXFP2 blocker potencies were calculated (Fig. 5a). Fifteen antibodies have IC50s < 50 nM, and three of the top antibodies (1F2, 4G6, and 2D4) were selected for evaluation in steroid hormone secretion assays by ELISA.\n(§3) Data entered as XY table, with x = [Inhibitor] (nM) and y = CYP11B2 or CYP11B1 fold change."}, "[7]": {"target": "T2, rat RXFP2", "assay": "INSL3-stimulated CYP11B2 mRNA expression in H295R stably expressing rat RXFP2", "type": "cell-based", "set-up": "expressed in transfected cells", "conditions": "48 h of treatment; read-out: EC50 on CYP11B2 mRNA expression, H295R-rRXFP2", "procedure": "as §2, §3"}}, "note": "Bridge positions count the residues as written; N and C are the ends. Ends that are not written are not given here. I, II: the chains in the order shown."}
{"substance": "I: PTPEMREKLCGHHFVRALVRVCGGPRWSTEA / II: AAATNPARYCCLSGCTQQDLLTLCPY (disulfide I:10-II:11, I:22-II:24, II:10-II:15) [INSL3, Insulin-like peptide 3]", "values": [{"measurement": "EC50", "setting": "[1]", "value": 13.4, "unit": "nM"}, {"measurement": "EC50", "setting": "[2]", "value": 8.4, "unit": "nM"}, {"measurement": "EC50", "setting": "[3]", "value": 13, "unit": "nM"}, {"measurement": "EC50", "setting": "[4]", "value": 0.048, "unit": "nM"}, {"measurement": "EC50", "setting": "[5]", "value": 2.9, "unit": "nM"}, {"measurement": "EC50", "setting": "[6]", "value": 0.3, "unit": "nM"}, {"measurement": "EC50", "setting": "[7]", "value": 0.4, "unit": "nM"}]}
